Residue numbers refer to the chain shown, from its start. Like-named read-outs stand apart in the source and are kept apart here.
Experiments:
human M1 = target: T1, human M1 (Homo sapiens, UniProt P11229); assay: M1 PAM assay (FLIPR intracellular calcium), human M1; assay type: cell-based
T1 construct: expressed in transfected cells; host or cells: CHO cells
T1 sequence (P11229 1-460): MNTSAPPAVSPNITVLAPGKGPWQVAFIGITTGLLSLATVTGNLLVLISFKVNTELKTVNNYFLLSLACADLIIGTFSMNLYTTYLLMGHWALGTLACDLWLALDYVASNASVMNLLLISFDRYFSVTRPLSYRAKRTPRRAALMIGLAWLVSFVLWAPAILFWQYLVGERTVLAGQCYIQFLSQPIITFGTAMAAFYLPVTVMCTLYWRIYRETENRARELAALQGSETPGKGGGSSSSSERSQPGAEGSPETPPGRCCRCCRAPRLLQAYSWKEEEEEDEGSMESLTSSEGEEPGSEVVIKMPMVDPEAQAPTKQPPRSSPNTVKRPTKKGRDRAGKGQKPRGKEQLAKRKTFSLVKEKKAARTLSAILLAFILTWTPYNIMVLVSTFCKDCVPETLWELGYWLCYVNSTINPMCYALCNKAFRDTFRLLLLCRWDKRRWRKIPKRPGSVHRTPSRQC
Method: The assay study the effect of several concentrations of test compounds on basal or acetylcholine-stimulated Ca^2+ levels using FLIPR.
CHO human M1 are plated the day before the experiments at 2×10^5 cells/ml in PDL BioCoat 96 well black/clear plate (Becton 35 4640). The cells are grown at 37° C. and 5% CO2 in the following medium: F12 Nut Mix (Gibco 21765), 10% FCS heat inactivated (GIBCO 16000-044), 1% Pen Strep (Gibco,15140) and 200 μg/ml Geneticin (Gibco 11811). On the day of the experiment, the medium was removed and replaced by […] of dye loading buffer containing Hanks Balanced Salt solution (HBSS, 14065-049, Gibco) with 20 mM HEPES (Gibco 15630-056), 2 mM Probenicid (Sigma P8761), […] ester (Molecular Probes F-14202), 10% Pluronic acid Molecular Probes P-3000) pH=7.4 and incubated at 37° C. After 60 minutes extracellular dye was removed and the cells were washed five times with FLIPR buffer containing HBSS (Gibco 14065-049) with 20 mM HEPES (Gibco, 15630-056), 2 mM Probenicid (Sigma P8761) pre-warmed at 37° C. using and Ebml cell washer leaving […] of FLIPR buffer in each well. The cell plate and the diluted compounds (1% DMSO final concentration) are placed on the platform of the FLIPR and the door closed. A signal test to check background fluorescence and basal fluorescence signal is performed. Laser intensity is adjusted if necessary. Two minutes preincubation with the diluted test compounds is provide to determine any agonist activity on the M1 receptor by comparison to 30 nM Acetylcholine control. In order to determine any modulator activity the diluted compounds were added to cells and after two minutes preincubation, the EC20 of acetylcholine is added followed by another two minutes preincubation before the measurement of intracellular Ca^2+ with a FLIPR (Molecular Devices).

ratM1 = target: T2, ratM1 (Rattus norvegicus, UniProt P08482); assay: M1 PAM assay (FLIPR intracellular calcium), rat M1; assay type: cell-based; conditions: rat M1, FLIPR Ca2+; second value of the cell; read-out: ratM1 EC50
T2 construct: expressed in transfected cells; host or cells: CHO cells (stated generally for the assay, not specifically for rat M1)
T2 sequence (P08482 1-460): T1 sequence (P11229 1-460) with A5V, T254S, P309S, R320K, A337G, I413V

[1] = CHO human M1 cells, FLIPR Ca2+, with EC20 of acetylcholine, first value of the cell, read-out: hM1 EC50

| SMILES | EC50 (human M1; [1]) | EC50 (ratM1) | EC50 (human M1) |
| --- | --- | --- | --- |
| CNC(=O)c1ccc(Cn2cc(C(=O)NC3CCCOC3)c3c(F)cccc32)cc1 (stereo not shown) [Example 122, 4-fluoro-1-[[4-(methylcarbamoyl)phenyl]methyl]-N-(oxan-3-yl)indole-3-carboxamide] | 62 nM | 154 nM |  |
| CNC(=O)c1ccc(Cn2cc(C(=O)NC3CCCC(F)(F)C3)c3c(F)cccc32)cc1 (stereo not shown) [Example 118, N-(3,3-difluorocyclohexyl)-4-fluoro-1-[[4-(methylcarbamoyl)phenyl]methyl]indole-3-carboxamide] | 9 nM | 29 nM |  |
| Cn1cc(-c2ccc(Cn3cc(C(=O)N[C@H]4CCCC[C@@H]4O)c4c(F)cccc43)cc2)cn1 [Example 44, 4-fluoro-N-((1S,2S)-2-hydroxycyclohexyl)-1-(4-(1-methyl-1H-pyrazol-4-yl)benzyl)-1H-indole-3-carboxamide] | 6 nM | 9.8 nM |  |
| Cn1cc(-c2ccc(Cn3cc(C(=O)N[C@H]4CCCC[C@@H]4O)c4c(F)c(F)c(F)c(F)c43)cc2)cn1 [Example 53, 4,5,6,7-tetrafluoro-N-((1S,2S)-2-hydroxycyclohexyl)-1-(4-(1-methyl-1H-pyrazol-4-yl)benzyl)-1H-indole-3-carboxamide] | 44.1 nM | 47.5 nM |  |
| CNC(=O)c1ccc(Cn2cc(C(=O)NC3CCOCC3C)c3c(F)cccc32)cc1 (stereo not shown) [Example 126, 4-fluoro-1-[[4-(methylcarbamoyl)phenyl]methyl]-N-(3-methyloxan-4-yl)indole-3-carboxamide] | 19 nM | 51 nM |  |
| Cn1cc(-c2ccc(Cn3nc(C(=O)N[C@@H]4CCCC[C@H]4O)c4c(F)cccc43)c(F)c2)cn1 [Example 4, 4-fluoro-1-(2-fluoro-4-(1-methyl-1H-pyrazol-4-yl)benzyl)-N-((1R,2R)-2-hydroxycyclohexyl)-1H-indazole-3-carboxamide] | 295 nM | 1290 nM |  |
| Cn1cc(-c2cccc(Cn3cc(C(=O)N[C@H]4CCCC[C@@H]4O)c4c(F)cccc43)c2)cn1 [Example 35, 4-fluoro-N-((1S,2S)-2-hydroxycyclohexyl)-1-(3-(1-methyl-1H-pyrazol-4-yl)benzyl)-1H-indole-3-carboxamide] | 226 nM |  |  |
| NC(=O)c1cccc(Cn2cc(C(=O)N[C@H]3CCCC[C@@H]3O)c3c(F)cccc32)c1 [Example 81, 1-(3-carbamoylbenzyl)-4-fluoro-N-((1S,2S)-2-hydroxycyclohexyl)-1H-indole-3-carboxamide] | 351 nM |  |  |
| O=C(N[C@H]1CCCC[C@@H]1O)c1cn(Cc2cccc(Cl)c2)c2cccc(F)c12 [Example 39, 1-(3-chlorobenzyl)-4-fluoro-N-((1S,2S)-2-hydroxycyclohexyl)-1H-indole-3-carboxamide] |  |  | 205 nM |
| CN(C)C(=O)c1cccc(Cn2cc(C(=O)N[C@H]3CCCC[C@@H]3O)c3c(F)cccc32)c1 [Example 90, 1-(3-(dimethylcarbamoyl)benzyl)-4-fluoro-N-((1S,2S)-2-hydroxycyclohexyl)-1H-indole-3-carboxamide] | 341 nM |  |  |
| O=C(N[C@H]1CCCC[C@@H]1O)c1cn(Cc2ccc(OC(F)F)cc2)c2cccc(F)c12 [Example 29, 1-(4-(difluoromethoxy)benzyl)-4-fluoro-N-((1S,2S)-2-hydroxycyclohexyl)-1H-indole-3-carboxamide] |  |  | 226 nM |
| CNC(=O)c1ccc(Cn2cc(C(=O)NC3CCSCC3)c3c(F)cccc32)cc1F [Example 167, 4-fluoro-1-(3-fluoro-4-(methylcarbamoyl)benzyl)-N-(tetrahydro-2H-thiopyran-4-yl)-1H-indole-3-carboxamide] | 47 nM |  |  |
| CS(=O)(=O)c1ccc(Cn2cc(C(=O)N[C@H]3CCCC[C@@H]3O)c3c(F)cccc32)cc1 [Example 82, 4-fluoro-N-((1S,2S)-2-hydroxycyclohexyl)-1-(4-(methylsulfonyl)benzyl)-1H-indole-3-carboxamide] | 435 nM |  |  |
| N#Cc1cccc(Cn2cc(C(=O)N[C@H]3CCCC[C@@H]3O)c3c(F)cccc32)c1 [Example 40, 1-(3-cyanobenzyl)-4-fluoro-N-((1S,2S)-2-hydroxycyclohexyl)-1H-indole-3-carboxamide] |  |  | 476 nM |
| COc1ccc(Cn2cc(C(=O)N[C@H]3CCCC[C@@H]3O)c3c(F)cccc32)c(F)c1 [Example 28, 4-fluoro-1-(2-fluoro-4-methoxybenzyl)-N-((1S,2S)-2-hydroxycyclohexyl)-1H-indole-3-carboxamide] |  |  | 272 nM |
| O=C(N[C@H]1CCCC[C@@H]1O)c1cn(Cc2ccc(OC(F)(F)F)cc2)c2cccc(F)c12 [Example 34, 4-fluoro-N-((1S,2S)-2-hydroxycyclohexyl)-1-(4-(trifluoromethoxy)benzyl)-1H-indole-3-carboxamide] |  |  | 342 nM |
| O=C(N[C@H]1CCCC[C@@H]1O)c1cn(CC2CCN(c3ccccn3)CC2)c2cccc(F)c12 [Example 160, 4-Fluoro-N-((1S,2S)-2-hydroxycyclohexyl)-1-((1-(pyridin-2-yl)piperidin-4-yl)methyl)-1H-indole-3-carboxamide] | 196 nM |  |  |
| Cn1cc(-c2ccc(Cn3cc(C(=O)N[C@H]4CCCC[C@@H]4O)c4c(F)c(F)ccc43)cc2)cn1 [Example 57, 4,5-difluoro-N-((1S,2S)-2-hydroxycyclohexyl)-1-(4-(1-methyl-1H-pyrazol-4-yl)benzyl)-1H-indole-3-carboxamide] | 139 nM |  |  |
| CNC(=O)c1ccc(Cn2cc(C(=O)NC3CCOC(C)(C)C3)c3c(F)cccc32)cc1F (stereo not shown) [Example 166, N-(2,2-dimethyltetrahydro-2H-pyran-4-yl)-4-fluoro-1-(3-fluoro-4-(methylcarbamoyl)benzyl)-1H-indole-3-carboxamide] | 35 nM |  |  |
| CNC(=O)c1cccc(Cn2cc(C(=O)N[C@H]3CCCC[C@@H]3O)c3c(F)cccc32)c1 [Example 89, 4-fluoro-N-((1S,2S)-2-hydroxycyclohexyl)-1-(3-(methylcarbamoyl)benzyl)-1H-indole-3-carboxamide] | 319 nM |  |  |
| Cn1cc(-c2ccc(Cn3cc(C(=O)NC4CCCCC4(F)F)c4c(F)cccc43)c(F)c2)cn1 (stereo not shown) [Example 25, N-(2,2-difluorocyclohexyl)-4-fluoro-1-(2-fluoro-4-(1-methyl-1H-pyrazol-4-yl)benzyl)-1H-indole-3-carboxamide] | 359 nM |  |  |
| CCOC(=O)Nc1ccc(Cn2cc(C(=O)N[C@H]3CCCC[C@@H]3O)c3c(F)cccc32)cc1 [Example 85, ethyl 4-((4-fluoro-3-((1S,2S)-2-hydroxycyclohexylcarbamoyl)-1H-indol-1-yl)methyl)phenylcarbamate] | 42.9 nM |  |  |
| CNC(=O)c1ccc(Cn2cc(C(=O)NC3CCOCC3C)c3c(F)cccc32)cc1F (stereo not shown) [Example 168, 4-fluoro-1-(3-fluoro-4-(methylcarbamoyl)benzyl)-N-(3-methyltetrahydro-2H-pyran-4-yl)-1H-indole-3-carboxamide] | 97 nM |  |  |
| CNC(=O)c1ccc(Cn2cc(C(=O)NC3CCCCC3(F)F)c3c(F)cccc32)cc1F (stereo not shown) [Example 165, N-(2,2-difluorocyclohexyl)-4-fluoro-1-(3-fluoro-4-(methy7lcarbamoyl)benzyl)-1H-indole-3-carboxamide] | 43 nM |  |  |
| Cn1cc(-c2ccc(Cn3nc(C(=O)NC4CCOCC4)c4c(F)cccc43)cc2)cn1 [Example 69, 4-fluoro-1-(4-(1-methyl-1H-pyrazol-4-yl)benzyl)-N-(tetrahydro-2H-pyran-4-yl)-1H-indazole-3-carboxamide] | 344 nM |  |  |

Reference: patent publication US9708259B2 (Hoffmann-La Roche Inc., priority 2013, dated 2017)
